Reference: the NIST ThermoML archive (doi:10.1016/j.tca.2004.11.034)

Assays:
[1] = 101.33 kPa, Liquid; for speed of sound: Anton Paar DSA 48; for mass density: Vibrating tube method
[2] = xn = mol fraction of the nth substance listed; settings: 101.33 kPa, Liquid; for speed of sound: Anton Paar DSA 48; for mass density: Vibrating tube method
[3] = excess molar enthalpy (molar enthalpy of mixing); xn = mol fraction of the nth substance listed; settings: 298.15 K, 101.33 kPa, Liquid, Flow calorimetry

CC(C)CCl [1-chloro-2-methylpropane]
[1]
Settings	mass density [kg/m3]	speed of sound [m/s]
298.15 K	870.89	1079.2
313.15 K	853.56	–
333.15 K	–	1016.3

CC(C)CCl [1-chloro-2-methylpropane] + CC1CCCO1
[2]
Settings	mass density, 298.15 K [kg/m3]	mass density, 313.15 K [kg/m3]	speed of sound, 298.15 K [m/s]	speed of sound, 313.15 K [m/s]
x2 = 0.0515	870.05	–	1085.4	–
x2 = 0.0553	–	852.78	–	1023
x2 = 0.1006	869.23	–	1091.3	–
x2 = 0.1014	–	852.08	–	1028.6
x2 = 0.1992	–	850.48	–	1040.5
x2 = 0.2026	867.39	–	1103.8	–
x2 = 0.3	–	848.74	–	1052.7
x2 = 0.3059	865.41	–	1116.6	–
x2 = 0.4062	863.41	–	1129.1	–
x2 = 0.4072	–	846.78	–	1065.7
x2 = 0.5015	–	844.98	–	1077
x2 = 0.505	861.34	–	1141.4	–
x2 = 0.6022	859.23	–	1153.5	–
x2 = 0.605	–	842.9	–	1089.3
x2 = 0.7022	–	840.83	–	1100.8
x2 = 0.7035	856.92	–	1166.1	–
x2 = 0.8	–	838.61	–	1112.4
x2 = 0.8012	854.57	–	1178.2	–
x2 = 0.8967	–	836.35	–	1123.8
x2 = 0.9099	851.75	–	1191.6	–
x2 = 0.9491	–	835.09	–	1130
x2 = 0.9492	850.66	–	1196.4	–

[3]
Settings	excess molar enthalpy [kcal/mol]
x2 = 0.06	-0.00789
x2 = 0.109	-0.016
x2 = 0.21	-0.0315
x2 = 0.309	-0.0416
x2 = 0.411	-0.0504
x2 = 0.511	-0.0535
x2 = 0.609	-0.0526
x2 = 0.707	-0.0468
x2 = 0.806	-0.0361
x2 = 0.904	-0.0201
x2 = 0.954	-0.0103

CCCCCl [1-chlorobutane]
[1]
Settings	mass density [kg/m3]	speed of sound [m/s]
298.15 K	880.69	1118.8
313.15 K	863.86	–
333.15 K	–	1057.1

CC(C)(C)Cl [2-chloro-2-methylpropane]
[1]
Settings	mass density [kg/m3]	speed of sound [m/s]
298.15 K	835.67	983.1
313.15 K	818.43	–
333.15 K	–	920.3

CC(C)(C)Cl [2-chloro-2-methylpropane] + CC1CCCO1
[2]
Settings	mass density, 298.15 K [kg/m3]	mass density, 313.15 K [kg/m3]	speed of sound, 298.15 K [m/s]	speed of sound, 313.15 K [m/s]
x2 = 0.0505	837.22	–	993.8	–
x2 = 0.0517	–	819.88	–	932.6
x2 = 0.0895	–	820.9	–	941.2
x2 = 0.108	838.65	–	1006.1	–
x2 = 0.195	–	823.23	–	964
x2 = 0.2065	840.58	–	1027.5	–
x2 = 0.3015	–	825.36	–	986.5
x2 = 0.3136	842.3	–	1050.9	–
x2 = 0.3969	–	827.1	–	1006.8
x2 = 0.4125	843.81	–	1072.6	–
x2 = 0.4986	–	828.77	–	1028.7
x2 = 0.5156	845.26	–	1095.2	–
x2 = 0.605	–	830.31	–	1051.5
x2 = 0.6124	846.46	–	1116.5	–
x2 = 0.6978	–	831.4	–	1071.1
x2 = 0.7107	847.59	–	1138.2	–
x2 = 0.7998	–	832.45	–	1092
x2 = 0.8031	848.42	–	1158.7	–
x2 = 0.8947	–	833.18	–	1111.7
x2 = 0.9022	848.98	–	1180.6	–
x2 = 0.9476	849.12	–	1190.7	–
x2 = 0.949	–	833.54	–	1123.7

[3]
Settings	excess molar enthalpy [kcal/mol]
x2 = 0.057	-0.00335
x2 = 0.104	-0.00717
x2 = 0.201	-0.0146
x2 = 0.298	-0.0198
x2 = 0.398	-0.0241
x2 = 0.497	-0.0261
x2 = 0.597	-0.0253
x2 = 0.696	-0.0227
x2 = 0.799	-0.0184
x2 = 0.901	-0.0105
x2 = 0.954	-0.0055

CCC(C)Cl (stereo not given) [2-chlorobutane]
[1]
Settings	mass density [kg/m3]	speed of sound [m/s]
298.15 K	867.37	1066.8
313.15 K	850.16	–
333.15 K	–	1006.9

CCC(C)Cl (stereo not given) [2-chlorobutane] + CC1CCCO1
[2]
Settings	mass density, 298.15 K [kg/m3]	mass density, 313.15 K [kg/m3]	speed of sound, 298.15 K [m/s]	speed of sound, 313.15 K [m/s]
x2 = 0.049	866.71	–	1073.2	–
x2 = 0.0565	–	849.52	–	1013.7
x2 = 0.1006	866.01	–	1080.1	–
x2 = 0.101	–	848.97	–	1019.3
x2 = 0.201	–	847.69	–	1031.9
x2 = 0.2041	864.52	–	1093.8	–
x2 = 0.3034	862.99	–	1107.1	–
x2 = 0.3045	–	846.28	–	1045.1
x2 = 0.4039	–	844.81	–	1057.9
x2 = 0.4055	861.31	–	1120.8	–
x2 = 0.5026	859.61	–	1134	–
x2 = 0.5074	–	843.19	–	1071.3
x2 = 0.6005	857.81	–	1147.3	–
x2 = 0.6044	–	841.58	–	1083.9
x2 = 0.6989	855.91	–	1160.9	–
x2 = 0.7042	–	839.79	–	1097
x2 = 0.8022	853.81	–	1175.2	–
x2 = 0.8034	–	837.9	–	1110
x2 = 0.8988	–	835.97	–	1122.6
x2 = 0.8991	851.69	–	1188.7	–
x2 = 0.9456	–	835.03	–	1128.8
x2 = 0.9472	850.55	–	1195.3	–

[3]
Settings	excess molar enthalpy [kcal/mol]
x2 = 0.057	-0.00454
x2 = 0.104	-0.01
x2 = 0.201	-0.0198
x2 = 0.298	-0.0277
x2 = 0.398	-0.033
x2 = 0.497	-0.0356
x2 = 0.597	-0.0359
x2 = 0.696	-0.0323
x2 = 0.799	-0.0251
x2 = 0.901	-0.0141
x2 = 0.954	-0.00717

CC1CCCO1 (stereo not given) [2-methyltetrahydrofuran]
[1]
Settings	mass density [kg/m3]	speed of sound [m/s]
298.15 K	849.2	1202.6
313.15 K	833.88	–
333.15 K	–	1136.2

CC1CCCO1 (stereo not given) [2-methyltetrahydrofuran] + CCCCCl
[2]
Settings	mass density, 298.15 K [kg/m3]	mass density, 313.15 K [kg/m3]	speed of sound, 298.15 K [m/s]	speed of sound, 313.15 K [m/s]
x1 = 0.0507	–	862.5	–	1061
x1 = 0.0535	879.23	–	1123.2	–
x1 = 0.0972	878.04	–	1126.8	–
x1 = 0.1022	–	861.16	–	1065
x1 = 0.1958	875.19	–	1134.9	–
x1 = 0.2014	–	858.46	–	1072.6
x1 = 0.2975	872.17	–	1143.3	–
x1 = 0.3019	–	855.6	–	1080.3
x1 = 0.4006	869.04	–	1151.9	–
x1 = 0.4047	–	852.6	–	1088.5
x1 = 0.5017	–	849.72	–	1096.2
x1 = 0.5031	865.88	–	1160.5	–
x1 = 0.6017	862.77	–	1168.8	–
x1 = 0.6026	–	846.65	–	1104.3
x1 = 0.6986	859.63	–	1177	–
x1 = 0.7017	–	843.55	–	1112.3
x1 = 0.7994	–	840.43	–	1120.2
x1 = 0.8009	856.27	–	1185.6	–
x1 = 0.9005	852.87	–	1194.1	–
x1 = 0.9009	–	837.13	–	1128.3
x1 = 0.9487	–	835.54	–	1132.2
x1 = 0.9489	851.15	–	1198.2	–

[3]
Settings	excess molar enthalpy [kcal/mol]
x1 = 0.057	-0.00669
x1 = 0.104	-0.0139
x1 = 0.201	-0.0277
x1 = 0.298	-0.038
x1 = 0.398	-0.0466
x1 = 0.497	-0.0502
x1 = 0.597	-0.0495
x1 = 0.696	-0.0449
x1 = 0.799	-0.0351
x1 = 0.901	-0.0203
x1 = 0.954	-0.0103
